Results from paper PMC12396409, “Screening and hit evaluation of a microbial metabolite library against the pathogenic Plasmodium falciparum and Toxoplasma gondii parasites” (International Journal for Parasitology: Drugs and Drug …, 2025).
Where two headings read alike, the source gives them in different places. Where a SMILES comes first, the peptide text is derived from it. [ ]: non-standard residue; d: D form. GABA = NCCCC(=O)O

Key:
[1] = system: P. falciparum 3D7 parasites; experiment: P. falciparum growth inhibition assay, 1-cycle (72 h treatment), SYBR DNA staining (library screen at 2 μg/mL and dose-response); format: cell-based, Plasmodium falciparum
[2] = system: P. falciparum 3D7 parasites; experiment: P. falciparum growth inhibition assay, 2-cycle (120 h treatment), delayed-death screen and dose-response; format: cell-based, Plasmodium falciparum
[3] = system: T. gondii RH strain (RH-Tub-eYFP) tachyzoites; experiment: microbe, parasite or virus in culture; format: cell-based, Toxoplasma gondii; conditions: 72 h, 72 h; for percent parasite growth at 2 µg/mL: Toxoplasma gondii; for Mean / Replicate 1 / Replicate 2: 2 μg/mL; for Mean: mean of both replicates, growth (% of control); for Replicate 1 / Replicate 2: values are growth (% of control)
[4] = Plasmodium falciparum, 3D7, 72 h, library screen at 2 μg/mL, 72 h, % growth, replicate 1, read-out: Pf_72h_%Growth_Rep1
[5] = Plasmodium falciparum, 3D7, 72 h, library screen at 2 μg/mL, 72 h, % growth, replicate 2, read-out: Pf_72h_%Growth_Rep2
[6] = Plasmodium falciparum, 3D7, 120 h, library screen at 2 μg/mL, 120 h, % growth, replicate 1, read-out: Pf_120h_%Growth_Rep1
[7] = Plasmodium falciparum, 3D7, 120 h, library screen at 2 μg/mL, 120 h, % growth, replicate 2, read-out: Pf_120h_%Growth_Rep2
[8] = library screen at 2 μg/mL, % growth, replicate 1, read-out: Tg_72h_%Growth_Rep1
[9] = library screen at 2 μg/mL, % growth, replicate 2, read-out: Tg_72h_%Growth_Rep2
[10] = library screen at 2 μg/mL, 72 h, % growth, replicate 1
[11] = library screen at 2 μg/mL, 72 h, % growth, replicate 2
[12] = library screen at 2 μg/mL, 120 h, % growth, replicate 1
[13] = library screen at 2 μg/mL, 120 h, % growth, replicate 2
[14] = library screen at 2 μg/mL, % growth, replicate 1
[15] = library screen at 2 μg/mL, % growth, replicate 2
[16] = T. gondii, parasite screen 2 μg/mL, % growth, replicate 1, read-out: Tg_72h_%Growth_Rep1
[17] = T. gondii, parasite screen 2 μg/mL, % growth, replicate 2, read-out: Tg_72h_%Growth_Rep2

C=CC(C)(C)[C@@]12C[C@H]3C(=O)N[C@H](CC(C)C)C(=O)N3[C@H]1N(C(C)=O)c1ccccc12 [Verrucofortine]
activity at 2 µg/mL ([1]; Plasmodium falciparum, 3D7, P. falciparum, 72 h, screen at 2 μg/mL, replicate 1, read-out: Pf_72h_%Growth_Rep1): 70%
activity at 2 µg/mL ([1]; Plasmodium falciparum, 3D7, P. falciparum, 72 h, screen at 2 μg/mL, replicate 2, read-out: Pf_72h_%Growth_Rep2): 83.7%
activity at 2 µg/mL ([2]; Plasmodium falciparum, 3D7, P. falciparum, 120 h, screen at 2 μg/mL, replicate 1, read-out: Pf_120h_%Growth_Rep1): 152%
activity at 2 µg/mL ([2]; Plasmodium falciparum, 3D7, P. falciparum, 120 h, screen at 2 μg/mL, replicate 2, read-out: Pf_120h_%Growth_Rep2): 81.9%
percent parasite growth at 2 µg/mL ([3]; T. gondii, screen at 2 μg/mL, replicate 1, read-out: Tg_72h_%Growth_Rep1): 90.9%
percent parasite growth at 2 µg/mL ([3]; T. gondii, screen at 2 μg/mL, replicate 2, read-out: Tg_72h_%Growth_Rep2): 99.7%

CCCC[C@H]1C(=O)O[C@H](C)[C@H](NC(=O)c2cccc(NC=O)c2O)C(=O)O[C@@H](C)[C@@H]1OC(=O)CC(C)C [Antimycin A3]
activity at 2 µg/mL [1, 4]: 47.1%
activity at 2 µg/mL [1, 5]: 38.8%
activity at 2 µg/mL [2, 6]: 45.4%
activity at 2 µg/mL [2, 7]: 32%
Mean ([3]; T. gondii): 21.56
Replicate 1 ([3]; T. gondii): 30.27
Replicate 2 ([3]; T. gondii): 12.84
percent parasite growth at 2 µg/mL [3, 8]: 30.3%
percent parasite growth at 2 µg/mL [3, 9]: 12.8%

COc1cc(C)c2c(c1)O[C@]1(C)Cc3cc4c(c(O)c3[C@H]2O1)C(=O)c1c(O)c(Cl)c(O)c(Cl)c1C4(C)C [Bischloroanthrabenzoxocinone]
Pf_72h_%Growth_Rep1 [1, 10]: 16.72%
Pf_72h_%Growth_Rep2 [1, 11]: 45.58%
Pf_120h_%Growth_Rep1 [2, 12]: 23.08%
Pf_120h_%Growth_Rep2 [2, 13]: 23.09%
Tg_72h_%Growth_Rep1 [3, 14]: 50.70%
Tg_72h_%Growth_Rep2 [3, 15]: 75.56%

COc1ccc(C[C@H](N)C(=O)N[C@H]2[C@@H](O)[C@H](n3cnc4c(N(C)C)ncnc43)O[C@@H]2CO)cc1 [Puromycin]
activity at 2 µg/mL ([1]; Plasmodium falciparum, 3D7, P. falciparum, 72 h, parasite screen 2 μg/mL, % growth, replicate 1, read-out: Pf_72h_%Growth_Rep1): 1.82%
activity at 2 µg/mL ([1]; Plasmodium falciparum, 3D7, P. falciparum, 72 h, parasite screen 2 μg/mL, % growth, replicate 2, read-out: Pf_72h_%Growth_Rep2): 1.65%
activity at 2 µg/mL ([2]; Plasmodium falciparum, 3D7, P. falciparum, 120 h, parasite screen 2 μg/mL, % growth, replicate 1, read-out: Pf_120h_%Growth_Rep1): -0.01%
activity at 2 µg/mL ([2]; Plasmodium falciparum, 3D7, P. falciparum, 120 h, parasite screen 2 μg/mL, % growth, replicate 2, read-out: Pf_120h_%Growth_Rep2): 7.14%
percent parasite growth at 2 µg/mL [3, 16]: -0.59%
percent parasite growth at 2 µg/mL [3, 17]: 1.12%

CO[C@@H]1[C@@H](OC(N)=O)[C@@H](O)[C@H](Oc2ccc3c(O)c(NC(=O)c4ccc(O)c(CC=C(C)C)c4)c(=O)oc3c2C)OC1(C)C [Novobiocin, reference compound]
activity at 2 µg/mL ([1]; Plasmodium falciparum, 3D7, 72 h, P. falciparum, 2 μg/mL, 72 h; read-out: 1) Growth (%) at 72 h): 81.4%
3) Fold change (72 h/120 h) [2]: 5.7
activity at 2 µg/mL ([2]; Plasmodium falciparum, 3D7, 120 h, P. falciparum, 2 μg/mL, 120 h; read-out: 2) Growth (%) at 120 h): 14.2%
Mean ([3]; T. gondii): 51.41
Replicate 1 ([3]; T. gondii): 9.17
Replicate 2 ([3]; T. gondii): 93.65

C[C@@](O)(/C=C/[C@H]1CC=CC(=O)O1)[C@@H](C[C@@H](O)\C=C/C=C\C=C\CO)OP(=O)(O)O [Fostriecin]
activity at 2 µg/mL [1, 4]: 29.1%
activity at 2 µg/mL [1, 5]: 38.8%
activity at 2 µg/mL [2, 6]: 36.9%
activity at 2 µg/mL [2, 7]: 56%
percent parasite growth at 2 µg/mL [3, 8]: 113%
percent parasite growth at 2 µg/mL [3, 9]: 102%

CC(C)C[C@@H]1NC(=O)[C@@H](C(C)C)NC(=O)[C@@H](C)NC(=O)CCCNC(=O)[C@@H](Cc2c[nH]c3ccccc23)NC(=O)[C@@H](C)NC(=O)[C@@H](C(C)C)NC1=O [Unguisin B] (cyclo([GABA][dA][dV]L[dV][dA][dW]))
Pf_72h_%Growth_Rep1 ([1]; P. falciparum, 72 h, screen at 2 μg/mL, replicate 1): 89.12%
Pf_72h_%Growth_Rep2 ([1]; P. falciparum, 72 h, screen at 2 μg/mL, replicate 2): 119.76%
Pf_120h_%Growth_Rep1 ([2]; P. falciparum, 120 h, screen at 2 μg/mL, replicate 1): 112.33%
Pf_120h_%Growth_Rep2 ([2]; P. falciparum, 120 h, screen at 2 μg/mL, replicate 2): 102.07%
Tg_72h_%Growth_Rep1 ([3]; T. gondii, screen at 2 μg/mL, replicate 1): 121.22%
Tg_72h_%Growth_Rep2 ([3]; T. gondii, screen at 2 μg/mL, replicate 2): 81.61%

CC(C)C[C@H]1C(=O)O[C@H](C(C)C)C(=O)N(C)[C@@H](CC(C)C)C(=O)O[C@H](C(C)C)C(=O)N(C)[C@@H](CC(C)C)C(=O)O[C@H](C(C)C)C(=O)N(C)[C@@H](CC(C)C)C(=O)O[C@H](C(C)C)C(=O)N1C [Bassianolide]
Pf_72h_%Growth_Rep1 [1, 10]: 6.97%
Pf_72h_%Growth_Rep2 [1, 11]: 5.23%
Pf_120h_%Growth_Rep1 [2, 12]: 10.85%
Pf_120h_%Growth_Rep2 [2, 13]: -3.01%
Tg_72h_%Growth_Rep1 [3, 14]: 78.43%
Tg_72h_%Growth_Rep2 [3, 15]: 93.64%

O=C1C=C2C=C[C@@H]3C[C@@]2(O1)[C@H]1CCCCN31 [Securinine]
activity at 2 µg/mL ([1]; Plasmodium falciparum, 3D7, 72 h, P. falciparum, 72 h, parasite screen 2 μg/mL, % growth, replicate 1, read-out: Pf_72h_%Growth_Rep1): 19.3%
activity at 2 µg/mL ([1]; Plasmodium falciparum, 3D7, 72 h, P. falciparum, 72 h, parasite screen 2 μg/mL, % growth, replicate 2, read-out: Pf_72h_%Growth_Rep2): 10.7%
activity at 2 µg/mL ([2]; Plasmodium falciparum, 3D7, 120 h, P. falciparum, 120 h, parasite screen 2 μg/mL, % growth, replicate 1, read-out: Pf_120h_%Growth_Rep1): 14.2%
activity at 2 µg/mL ([2]; Plasmodium falciparum, 3D7, 120 h, P. falciparum, 120 h, parasite screen 2 μg/mL, % growth, replicate 2, read-out: Pf_120h_%Growth_Rep2): 10.7%
percent parasite growth at 2 µg/mL [3, 16]: 46.1%
percent parasite growth at 2 µg/mL [3, 17]: 60.2%
